In patent US12622965B2, “Therapeutical tools and methods using temperature-sensitive receptors for treating blindness” (FRIEDRICH MIESCHER INSTITUTE FOR BIOMEDICAL RESEARCH, priority 2020, dated 2026):

System: HEK cells expressing TRPV1.459-6x-His, TRPV1.465-6x-His or untagged TRPV1
Experiment: whole cell voltage clamp in HEK cells expressing TRPV1 variants, activated by capsaicin
Assay type: cell-based
Conditions: TRPV1 agonist capsaicin 2.5 μM bath applied; voltage clamp −60 mV; mean±s.e.m
Excerpt: First, they developed a system based on rat TRPV1 channels and gold nanorods with absorption maxima at 915 nm. 915 nm was selected to ensure low water absorption. […] To measure if tagged channels are functional, they performed whole cell voltage clamp in HEK cells expressing TRPV1.459-6x-His, TRPV1.465-6x-His or untagged TRPV1 while activating the channels by TRPV1 agonist capsaicin. The size of evoked currents were similar between TRPV1.465-6x-His and TRPV1 (Mann-Whitney U test, P=0.8551; TRPV1.465-6x-His, 1633±164 pA, […] 15 cells; TRPV1, 1766±276 pA, n=14 cells; mean±s.e.m), but less in TRPV1.459-6x-His (Mann-Whitney U test, P=0.0207; TRPV1.459-6x-His, 976±118 pA, n=19 cells; mean±s.e.m). Therefore, they used TRPV1.465-6x-His (rTRPV1) in subsequent experiments.
For HEK293T cell experiments, cells were maintained at 37° C. on poly-D-lysine/laminin coated coverslips (GG-12-Laminin, Neuvitro) in DMEM supplemented with 10% fetal bovine serum. Cells were transfected with plasmids containing TRP variants using branched PEI. Cells were perfused in oxygenated Ringer's medium containing 110 mM NaCl, 2.5 mM KCl, 1 mM CaCl2, 1.6 mM MgCl2, 10 mM D-glucose and 22 mM NaHCO3 at ˜36° C. for the duration of the experiment. […] Data was analyzed offline using MATLAB (MathWorks).

Substance: TRPV1: untagged rat TRPV1 channel [reference compound]
- size of evoked currents: 1766±276 pA
